Our source for the TGI and GI50 values is PubChem BioAssay (NCI).

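96-well plates; 48 h exposure; 5 concentrations. Endpoints by linear interpolation between flanking doses. Not reached: highest tested concentration assigned. GI50: concentration for 50% inhibition of growth. TGI denotes the concentration required for complete inhibition of growth.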 Where a SMILES comes first, the peptide text is derived from it. The star is where a group is joined. Boc = CC(C)(C)OC(=O)*; OBn = c1ccc(CO*)cc1 Where only a bound is given, the exact number is not on record here.

What all share (assay): NCI anticancer screen, dose series, 48 h
For experiment [1], the system named is KM12 colon.
Experiment [2] relates to NCI-H460 lung.
Experiment [3] concerns OVCAR-8 ovarian.
Experiment [4] deals with SNB-19 CNS.
For experiment [5], the system named is A549 NSCLC.
The test system of experiment [6] is SW-620 colon.
Experiment [7] concerns MALME-3M melanoma.
Experiment [8] has as its system SNB-75 CNS.
Experiment [9] concerns NCI-H226 lung.
Experiment [10] concerns RXF 393 renal.
Experiment [11] has as its system EKVX NSCLC.
In experiment [12] the test system is A498 renal.
Experiment [13] relates to SN12C renal.
The subject of experiment [14] is K-562 leukemia.
The subject of experiment [15] is NCI/ADR-RES ovarian.
Experiment [16] deals with TK-10 renal.
In experiment [17] the test system is 786-0 renal.
The subject of experiment [18] is ACHN renal.
Experiment [19] has as its system BT-549 breast.

In the case of `O=C1c2ccccc2C(O)(C(=O)O)C1(O)CC=C(Cl)Cl` (configuration not stated), the TGI in experiment [1] was over 125 µM; in experiment [2] it was over 125 µM; in [3], over 125 µM; in experiment [4], over 78.9 µM; in experiment [5], over 125 µM; in [6], over 125 µM. The TGI in [7], in [8], in [9], in [10], in experiment [11] and in experiment [12] was over 125 µM throughout. In addition, the TGI in experiment [13], in [14] and in experiment [15] was over 125 µM throughout.
`CC[C@](O)(CC(=O)O[C@H]1C(=O)O[C@@H]2C[C@H]3C(C)=CC(=O)[C@@H](O)[C@]3(C)[C@H]3[C@@]4(O)OC[C@]32[C@@H]1[C@@H](C)[C@H]4O)C(C)C`: the TGI in experiment [1], in experiment [2], in experiment [3], in experiment [4], in [6] and in experiment [16] was under 0.01 µM throughout. Moreover, the TGI in experiment [7], in experiment [8], in [9], in experiment [17], in experiment [10] and in experiment [11] was under 0.01 µM in each case. Moreover, the TGI in experiment [12] is under 0.01 µM; in [18], under 0.01 µM; in experiment [13], under 0.01 µM; in [14], under 0.01 µM; in [15], 0.242 µM.
Regarding `Ic1ncnc2c1ncn2C1CCCO1` (configuration not stated), the TGI in experiment [1], in experiment [2], in experiment [3], in experiment [4], in [5] and in [6] was over 100 µM throughout. The TGI in experiment [16], in [7], in [8], in experiment [9], in experiment [17] and in experiment [11] was over 100 µM each time. For the same molecule, the TGI in experiment [12], in experiment [18], in experiment [13] and in experiment [14] was over 100 µM each time.
As for `CCOC(=O)CCC(NC(=O)c1ccc(CNc2nc3ccccc3nc2C(=O)OCC)cc1)C(=O)OCC` (configuration not stated), the TGI in experiment [1], in [3], in [4], in experiment [5], in [6] and in experiment [16] was over 100 µM in each case. The TGI in [7], in experiment [8], in [9], in experiment [17], in experiment [11] and in experiment [12] was over 100 µM throughout. Further, the TGI in experiment [18], in [13], in [14] and in experiment [15] was over 100 µM in each case.
As for `COc1cc(S(=O)(=O)Nc2nc(-c3ccc(N4C(=O)C(CC(=O)O)SC4c4ccccc4O)cc3)cs2)ccc1Cl` (configuration not stated), the TGI in experiment [1], in experiment [2], in experiment [3], in [4], in [5] and in experiment [6] was over 100 µM each time. Further, the TGI in experiment [16], in experiment [7], in [8], in experiment [9], in [17] and in [10] was over 100 µM in each case. The TGI in experiment [12], in experiment [18], in experiment [13], in [14] and in experiment [15] was over 100 µM each time.
Regarding `CC(C)C(NC(=O)C(Cc1ccccc1)NC(=O)OC(C)(C)C)C(=O)NCC(=O)OCc1ccccc1` (stereo not drawn) (Boc-Phe-Val-Gly-OBn; configuration not given here), the TGI in [2] came out at 37.9 µM; in [3], 35.6 µM; in experiment [4], 58.4 µM; in [6] it was 29.1 µM; in experiment [16] it was 27.1 µM; in [7], 37.5 µM. For the same molecule, the TGI in experiment [8] was 36 µM; in experiment [17], 32.1 µM; in experiment [11] it was 37.9 µM; in experiment [12] it was over 100 µM; in [18] it was 31.4 µM; in experiment [13], 34.5 µM. Moreover, the values for the TGI in [14] and in [15] were 23.9 µM and over 100 µM, respectively.
With `COCC(N=CN1CCCc2ccccc2[C@@H]1CCCCl)C(C)(C)C` (some centres not stated), the TGI in experiment [1] turned out to be 20.3 µM; in [2], 97.2 µM; in experiment [3] it was 40.7 µM; in experiment [4] it was 65.1 µM; in experiment [5], 66.3 µM; in experiment [6], 57.6 µM. The TGI was found to be 28.8 µM in experiment [16]; 6.27 µM in [7]; 11.8 µM in experiment [8]; 23.9 µM in [9]; 28.1 µM in [17]; 32.5 µM in experiment [10]. The TGI in experiment [11] was 88.9 µM; in experiment [12] it was 33.5 µM; in experiment [18], 70 µM; in experiment [13] it was 59 µM; in experiment [14], 14.2 µM; in [15], 3.19 µM.
Regarding `COC(=O)C(C)NP(=O)(N1CC1)N1CC1` (configuration not stated), the TGI in experiment [1], in experiment [3], in experiment [4], in [5], in [6] and in experiment [16] was over 100 µM throughout. Besides, the TGI in experiment [7], in experiment [8], in experiment [10], in experiment [11], in experiment [12] and in experiment [18] was over 100 µM throughout. The TGI in [13] and in [14] was over 100 µM throughout.
On to `O=[n+]1c2ccccc2n([O-])c2ccccc21`, for which the TGI in experiment [2], in experiment [3], in [4], in [5], in experiment [6] and in experiment [16] was over 100 µM throughout. For the same molecule, the TGI in experiment [7], in experiment [8], in experiment [9], in experiment [17], in experiment [11] and in experiment [12] was over 100 µM throughout. For the same molecule, the TGI in experiment [18], in [13], in experiment [14] and in experiment [15] was over 100 µM each time.
As for `O=C(O)c1ccc(P(=O)(O)c2ccc(C(=O)O)cc2Br)c(Br)c1`, the TGI in experiment [1], in [3], in experiment [4], in experiment [19], in experiment [5] and in [6] was over 100 µM each time. In addition, the TGI in [16], in experiment [8], in experiment [9], in experiment [17], in experiment [10] and in experiment [11] was over 100 µM each time. Also, the TGI in [13] and in experiment [14] was over 100 µM in each case.
For `O=c1[nH]n(Cc2ccccc2Cl)c2ccc([N+](=O)[O-])cc12`, the TGI in experiment [1], in experiment [2], in experiment [3], in experiment [4], in experiment [5] and in experiment [6] was over 100 µM in each case. Besides, the TGI was over 100 µM in experiment [16]; over 100 µM in experiment [7]; over 100 µM in experiment [8]; over 100 µM in experiment [9]; over 100 µM in experiment [17]; 57.9 µM in experiment [10]. Besides, the TGI in experiment [11] is over 100 µM; in experiment [12], 64.3 µM; in [18], over 100 µM; in experiment [13], over 100 µM; in experiment [14], over 100 µM; in [15], over 100 µM.
For the molecule `COC1CC(C)C(OC)C2=CC(=O)C=C(NC(=O)/C(C)=C/C=C\C(C)C(OC(N)=O)/C(C)=C\C(C)C1OC)C2=O` (configuration not stated), the TGI in experiment [1] stood at 1.43 µM; in [2], 8.37 µM; in [3], 18.3 µM; in [4] it was 18.1 µM; in [5] it was 31.4 µM; in experiment [6], 1.05 µM. The TGI in experiment [16] amounted to 9.81 µM; in experiment [7], 12 µM; in [8], 16.1 µM; in experiment [9] it was 22.4 µM; in experiment [17], 2.87 µM; in [10], 1.68 µM. Also, the TGI in [11] is 23.1 µM; in [12], 24.2 µM; in experiment [18] it was 3.97 µM; in experiment [13], 5.48 µM; in experiment [14], 1.19 µM. In addition, the GI50 in [14] is 0.047 µM.
As to `COc1cc(S(=O)(=O)Nc2nc(-c3ccc(N4C(=O)CSC4c4cccs4)cc3)cs2)ccc1Cl` (configuration not stated), the TGI in experiment [1], in experiment [2], in experiment [3], in [4], in experiment [5] and in experiment [6] was over 100 µM throughout. The TGI in [16] is over 100 µM; in experiment [7], over 100 µM; in experiment [8] it was over 100 µM; in experiment [9] it was over 100 µM; in experiment [17], over 100 µM; in experiment [10], 55.9 µM. The TGI was over 100 µM in [12]; over 100 µM in [18]; 77.8 µM in experiment [13]; over 100 µM in [14]; over 100 µM in [15].
Take `COc1ccc2cc(Oc3ccc(Cl)cc3)c(=O)oc2c1`: the TGI in experiment [1], in experiment [2], in [3], in [4], in [19] and in experiment [5] was over 100 µM each time. For the same molecule, the TGI in [6], in experiment [16], in experiment [7], in experiment [8], in experiment [9] and in [17] was over 100 µM throughout. Further, the TGI in [10], in [11], in [12], in experiment [18], in experiment [13] and in experiment [14] was over 100 µM each time.
For `O=C(Nc1ccc(Cl)cc1)C(=O)C(C(=O)c1ccccc1-c1ccccc1)C1OC(=O)c2ccccc21` (configuration not stated), the TGI in experiment [1] is 39.4 µM; in experiment [2] it was 40.1 µM; in experiment [3], 29.3 µM; in experiment [4], 38.2 µM; in experiment [5] it was 50.7 µM; in [6], 46.2 µM. Moreover, the TGI in [16] was 57.3 µM; in [8] it was 93.3 µM; in [9], 24 µM; in experiment [10], 24.4 µM; in experiment [11], 37.9 µM; in experiment [12] it was 38.7 µM. Besides, the TGI in experiment [18] is 92.4 µM; in [13], 62.4 µM; in [14], over 100 µM.
For the molecule `CC12CCC3[C@@H](CC3(C)C)C(O)(CCC1=O)C2` (some centres not stated), the TGI in experiment [1], in [3], in experiment [5], in [6], in experiment [16] and in experiment [7] was over 100 µM throughout. Besides, the TGI in [8], in [9], in [17], in experiment [11], in experiment [18] and in experiment [13] was over 100 µM each time. Also, the TGI in experiment [14] and in experiment [15] was over 100 µM each time.
